According to PMC8801796 (Reproductive Toxicology (Elmsford, N.y.), 2022):
Read-outs that look alike come from different tables or passages of the source.

Experiments:
[1] = Fertility and early embryonic development study in rats; format: in vivo, rat; conditions: both, Wistar Han, rat, in vivo, oral
[2] = tested on: Wistar Han (Crl:WI[Han]) rats; assay: as above; format: in vivo, rat; conditions: for Corpora lutea / Implantation sites / Live embryos / Resorptions: GD 14 uterine examination; for Number of pregnant females: of 20
[3] = Maternal toxicokinetics, rat EFD study; format: in vivo; conditions: for Cmax: female, Wistar Han, in vivo, po; for Cmax / Exposure Margin AUC24 / Exposure Margin Cmax: rat; for Mean Systemic Exposure AUC24: maternal rat; for Exposure Margin AUC24: relative to predicted human AUC24 68.6 μg h/mL; for Exposure Margin Cmax: relative to predicted human Cmax 4.14 μg/mL
[4] = Maternal toxicokinetics, rabbit EFD study; format: in vivo; conditions: for Cmax: female, New Zealand White, in vivo, po; for Cmax / Exposure Margin AUC24 / Exposure Margin Cmax: rabbit; for Mean Systemic Exposure AUC24: maternal rabbit; for Exposure Margin AUC24: relative to predicted human AUC24 68.6 μg h/mL; for Exposure Margin Cmax: relative to predicted human Cmax 4.14 μg/mL
[5] = tested on: New Zealand White [Hra:(NZW)SPF] rabbits
[6] = tested on: rats; conditions: doses up to 1000 mg/kg/day; cited from earlier work
[7] = tested on: monkeys; conditions: doses up to 600 mg/kg/day; cited from earlier work
[8] = cited from earlier work
[9] = in vivo; conditions: female, New Zealand White, rabbit, 1000 mg/kg/day
[10] = Rat embryo-fetal development; conditions: female, Wistar Han, rat, in vivo, oral
[11] = tested on: Wistar Han (Crl:WI[Han]) rats; assay: Rat embryo-fetal development

## CC(C)(C)[C@H](NC(=O)C(F)(F)F)C(=O)N1C[C@H]2[C@@H]([C@H]1C(=O)N[C@H](C#N)C[C@@H]1CCNC1=O)C2(C)C [NMV, nirmatrelvir]
[1]
  NOAEL: 1000 mg/kg/day
[2]; 60 mg/kg/day
  Female Food Consumption, Gestation Day 0−14: 19.2 ± 2.1 g/day
  Female Food Consumption, Premating Day 1−14: 15.3 ± 1.2 g/day
  Female Terminal Body Weight: 277.0 ± 24.1 g
  Male Food Consumption, Mating Day 15−19: 19.3 ± 2.8 g/day
  Male Food Consumption, Premating Day 1−14: 22.0 ± 1.1 g/day
  Male Terminal Body Weight: 409.9 ± 22.7 g
  Mean no. of estrous cycles: 2.7 ± 0.5
  Postimplantation loss: 5.3 ± 5.7%
  Precoital interval: 3.6 ± 3.5 days
  Preimplantation loss: 9.7 ± 8.1%
  Corpora lutea: 13.8 ± 1.3
  Implantation sites: 12.5 ± 1.4
  Live embryos: 11.8 ± 1.4
  Resorptions: 0.7 ± 0.7
  Number of pregnant females: 19
[2]; 200 mg/kg/day
  Female Food Consumption, Gestation Day 0−14: 19.0 ± 2.2 g/day
  Female Food Consumption, Premating Day 1−14: 14.8 ± 0.8 g/day
  Female Terminal Body Weight: 272.0 ± 13.3 g
  Male Food Consumption, Mating Day 15−19: 18.0 ± 3.1 g/day
  Male Food Consumption, Premating Day 1−14: 23.0 ± 1.2 g/day
  Male Terminal Body Weight: 411.6 ± 22.2 g
  Mean no. of estrous cycles: 2.7 ± 0.5
  Postimplantation loss: 9.5 ± 12.8%
  Precoital interval: 3.0 ± 2.2 days
  Preimplantation loss: 11.0 ± 18.4%
  Corpora lutea: 14.1 ± 1.7
  Implantation sites: 12.6 ± 3.0
  Live embryos: 11.5 ± 3.2
  Resorptions: 1.1 ± 1.6
  Number of pregnant females: 18
[2]; 1000 mg/kg/day
  Female Food Consumption, Gestation Day 0−14: 19.0 ± 1.6 g/day
  Female Food Consumption, Premating Day 1−14: 14.7 ± 1.0 g/day
  Female Terminal Body Weight: 277.8 ± 14.1 g
  Male Food Consumption, Mating Day 15−19: 18.3 ± 3.2 g/day
  Male Terminal Body Weight: 408.9 ± 19.7 g
  Mean no. of estrous cycles: 2.6 ± 0.5
  Postimplantation loss: 10.6 ± 11.9%
  Precoital interval: 3.2 ± 2.9 days
  Preimplantation loss: 16.9 ± 22.8%
  Corpora lutea: 12.7 ± 1.6
  Implantation sites: 10.5 ± 3.1
  Live embryos: 9.6 ± 3.2
  Resorptions: 1.0 ± 0.8
  Number of pregnant females: 20
[2]; 1000 mg/kg/day, p ≤ 0.05
  Male Food Consumption, Premating Day 1−14: 20.9 ± 0.9 g/day
[2]; up to 1000 mg/kg/day
  Effects on male or female fertility: no NMV-related effects on male or female fertility
  Systemic toxicity in males and females: no evidence of systemic toxicity
[3]; 100 mg/kg/day
  Cmax: 29000 ± 11000 ng/mL
[3]; 300 mg/kg/day
  Cmax: 43200 ± 14400 ng/mL
[3]; 1000 mg/kg/day
  Cmax: 65400 ± 18700 ng/mL
[3]; GD 17, 100 mg/kg/day
  Mean Systemic Exposure AUC24: 75.5 ± 12.4 μgh^•/mL
  Exposure Margin AUC24: 1.1x
  Exposure Margin Cmax: 7.0x
[3]; GD 17, 300 mg/kg/day
  Mean Systemic Exposure AUC24: 346 ± 92.0 μgh^•/mL
  Exposure Margin AUC24: 5.0x
  Exposure Margin Cmax: 10x
[3]; GD 17, 1000 mg/kg/day
  Mean Systemic Exposure AUC24: 535 ± 330 μgh^•/mL
  Exposure Margin AUC24: 7.8x
  Exposure Margin Cmax: 16x
[4]; 100 mg/kg/day
  Cmax: 17000 ± 6100 ng/mL
[4]; 300 mg/kg/day
  Cmax: 42900 ± 11100 ng/mL
[4]; 1000 mg/kg/day
  Cmax: 99600 ± 46500 ng/mL
[4]; GD 19, 100 mg/kg/day
  Mean Systemic Exposure AUC24: 98.7 ± 27.4 μgh^•/mL
  Exposure Margin AUC24: 1.4x
  Exposure Margin Cmax: 4.1x
[4]; GD 19, 300 mg/kg/day
  Mean Systemic Exposure AUC24: 195 ± 56.8 μgh^•/mL
  Exposure Margin AUC24: 2.8x
  Exposure Margin Cmax: 10x
[4]; GD 19, 1000 mg/kg/day
  Mean Systemic Exposure AUC24: 689 ± 206 μgh^•/mL
  Exposure Margin AUC24: 10x
  Exposure Margin Cmax: 24x
[5]; 100 mg/kg
  Corpora lutea: 9.7 ± 1.5
  Fetal weight (g)/Litter: 40.2 ± 3.0 g
  Implantation sites: 8.2 ± 1.7
  Maternal Body Weight (GD 29): 3.6 ± 0.2 kg
  Maternal Body Weight Gain (GD 7−29): 0.5 ± 0.1 kg
  Maternal Food Consumption (GD 7−29): 2983.9 ± 289.5 g
  Post-implantation loss: 3.3 ± 7.7%
  Pre-implantation loss: 14.4 ± 17.9%
[5]; 300 mg/kg
  Corpora lutea: 9.4 ± 2.1
  Fetal weight (g)/Litter: 40.3 ± 4.5 g
  Implantation sites: 8.6 ± 2.3
  Maternal Body Weight (GD 29): 3.6 ± 0.2 kg
  Maternal Body Weight Gain (GD 7−29): 0.4 ± 0.1 kg
  Maternal Food Consumption (GD 7−29): 2908.9 ± 500.1 g
  Post-implantation loss: 5.4 ± 7.4%
  Pre-implantation loss: 9.5 ± 10.2%
[5]; 1000 mg/kg
  Corpora lutea: 9.5 ± 1.7
  Implantation sites: 8.8 ± 1.6
  Maternal Body Weight (GD 29): 3.6 ± 0.2 kg
  Maternal Body Weight Gain (GD 7−29): 0.4 ± 0.1 kg
  Maternal Food Consumption (GD 7−29): 2703.0 ± 514.2 g
  Post-implantation loss: 3.2 ± 4.9%
  Pre-implantation loss: 6.4 ± 11.8%
[5]; 1000 mg/kg, p ≤ 0.01
  Fetal weight (g)/Litter: 37.7 ± 4.4 g
[5]; rabbit, 1000 mg/kg/day
  Mean maternal body weight gains and food consumption versus control: slightly lower than control
[5]; up to 1000 mg/kg/day
  Effects on embryo-fetal viability: no NMV-related effects on embryo-fetal viability
  Effects on external, visceral, or skeletal morphological development: no NMV-related effects on external, visceral, or skeletal morphological development
[6]
  Adverse findings in 2-week general toxicology study: lack of adverse findings
[7]
  Adverse findings in 2-week general toxicology study: lack of adverse findings
[8]
  Genetic toxicity: lack of genetic toxicity
[9]
  NOAEL: 300 mg/kg/day
[10]
  NOAEL: 1000 mg/kg/day
[11]; 100 mg/kg
  Corpora lutea: 11.4 ± 1.1
  Fetal weight (g)/Litter: 5.3 ± 0.3 g
  Implantation sites: 9.9 ± 1.5
  Maternal Food Consumption (GD 6−21): 313.4 ± 32.0 g/day
  Post-implantation loss: 6.5 ± 15.4%
  Pre-implantation loss: 12.8 ± 11.1%
[11]; 300 mg/kg
  Corpora lutea: 11.5 ± 1.5
  Fetal weight (g)/Litter: 5.5 ± 0.3 g
  Implantation sites: 9.3 ± 2.4
  Maternal Food Consumption (GD 6−21): 322.3 ± 20.8 g/day
  Post-implantation loss: 6.8 ± 14.9%
  Pre-implantation loss: 18.7 ± 19.9%
[11]; 1000 mg/kg
  Corpora lutea: 11.5 ± 1.5
  Fetal weight (g)/Litter: 5.4 ± 0.3 g
  Implantation sites: 9.7 ± 2.6
  Maternal Food Consumption (GD 6−21): 309.5 ± 43.1 g/day
  Post-implantation loss: 9.7 ± 14.1%
  Pre-implantation loss: 15.3 ± 21.0%
[11]; all dose groups
  Effects on embryo-fetal viability: no NMV-related effects on embryo-fetal viability
[11]; any dose up to 1000 mg/kg/day
  Maternal toxicity: no NMV-related maternal toxicity
[11]; up to 1000 mg/kg/day
  Effects on fetal external, visceral, or skeletal morphological development: no effects on fetal external, visceral, or skeletal morphological development
